In patent publication US10829458B2 (Araxes Pharma LLC, priority 2015, dated 2020):

Biological target: T1, KRAS G12C 1-169, his-tagged protein, GDP-loaded (Homo sapiens, UniProt P01116, G12C)
T1 construct: KRAS G12C 1-169, his-tagged protein, GDP-loaded
Test: Biochemical assay: covalent modification of KRAS G12C measured by mass spectrometry (RapidFire/TOF or Q-Exactive)
Details: covalent binding to KRAS G12C; compounds of structure (I)
Procedure, shortened: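 GDP-loaded his-tagged KRAS G12C 1-169 at 2 μM in 20 mM Hepes, 150 mM NaCl, 1 mM MgCl2 incubated at room temperature with compound (10, 30 or 100 μM final, 2% DMSO) for 30 min, 2 h or 24 h, then quenched with formic acid. Intact-protein LC-MS (RapidFire/TOF or Q-Exactive) with deconvolution quantified modified versus unmodified protein.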

Compound	Binding %
C=CC(=O)N1CCN(c2c(C#N)c(N3CC(N(C)C)C3)nc3c(F)c(-c4c(O)cccc4F)c(Cl)cc23)CC1 [Example I-197, 4-(4-acryloyl-piperazin-1-yl)-6-chloro-2-(3-(dimethyl-amino)azetidin-1-yl)-8-fluoro-7-(2-fluoro-6-hydroxyphenyl) quinoline-3-carbonitrile]	++ (++ indicates binding activity from 50 to 90%)
C=CC(=O)N1CCN(c2nc(CCN3CC(C)(N(C)C)C3)nc3c(F)c(-c4c(O)cccc4F)c(Cl)cc23)CC1 [Example I-198, 1-(4-(6-chloro-2-(2-(3-(dimethyl-amino)-3-methyl-azetidin-1-yl)ethyl)-8-fluoro-7-(2-fluoro-6-hydroxyphenyl)quinazolin-4-yl)piperazin-1-yl) prop-2-en-1-one]	++ (++ indicates binding activity from 50 to 90%)
C=CC(=O)N1CCN(c2nc(CNc3ccccn3)nc3c(F)c(-c4c(O)cccc4F)c(Cl)cc23)CC1 [Example I-199, 1-(4-(6-chloro-8-fluoro-7-(2-fluoro-6-hydroxyphenyl)-2-((pyridin-2-ylamino)methyl)quinazolin-4-yl)piperazin-1-yl) prop-2-en-1-one]	+++ (+++ indicates binding activity greater than 90%)
C=CC(=O)N1CCN(c2nc(CCN3CC(F)(F)C3)nc3c(F)c(-c4c(O)cccc4F)c(Cl)cc23)CC1 [Example I-200, 1-(4-(6-chloro-2-(2-(3,3-difluoro-azetidin-1-yl)ethyl)-8-fluoro-7-(2-fluoro-6-hydroxyphenyl)quinazolin-4-yl)piperazin-1-yl) prop-2-en-1-one]	++ (++ indicates binding activity from 50 to 90%)
C=CC(=O)N1CCN(c2nc(CCNc3ccccn3)nc3c(F)c(-c4c(O)cccc4F)c(Cl)cc23)CC1 [Example I-201, 1-(4-(6-chloro-8-fluoro-7-(2-fluoro-6-hydroxyphenyl)-2-(2-(pyridin-2-ylamino)ethyl)quinazolin-4-yl)piperazin-1-yl) prop-2-en-1-one]	++ (++ indicates binding activity from 50 to 90%)
C=CC(=O)N1CCN(c2c(C#N)c(NC3CCN(C4CC4)CC3)nc3c(F)c(-c4c(C)ccc5[nH]ncc45)c(Cl)cc23)CC1 [Example I-202, 4-(4-acryloyl-piperazin-1-yl)-6-chloro-2-((1-cyclopropyl-piperidin-4-yl)amino)-8-fluoro-7-(5-methyl-1H-indazol-4-yl) quinoline-3-carbonitrile]	++ (++ indicates binding activity from 50 to 90%)
C=CC(=O)N1CCN(c2nc(OCC3CCN(C4CC4)CC3)nc3c(F)c(-c4c(C)ccc5[nH]ncc45)c(Cl)cc23)CC1 [Example I-203, 1-(4-(6-chloro-2-((1-cyclopropyl-piperidin-4-yl)methoxy)-8-fluoro-7-(5-methyl-1H-indazol-4-yl)quinazolin-4-yl)piperazin-1-yl) prop-2-en-1-one]	++ (++ indicates binding activity from 50 to 90%)
C=CC(=O)N1CCN(c2nc(C(F)(F)F)nc3c(F)c(-c4c(O)cccc4F)c(Cl)cc23)CC1 [Example I-204, 1-(4-(6-chloro-8-fluoro-7-(2-fluoro-6-hydroxyphenyl)-2-(trifluoro-methyl)quinazolin-4-yl)piperazin-1-yl) prop-2-en-1-one]	++ (++ indicates binding activity from 50 to 90%)
C=CC(=O)N1CCN(c2nc(P(C)(C)=O)nc3c(F)c(-c4c(O)cccc4F)c(Cl)cc23)CC1 [Example I-205, 1-(4-(6-chloro-2-(dimethyl-phosphoryl)-8-fluoro-7-(2-fluoro-6-hydroxyphenyl)quinazolin-4-yl)piperazin-1-yl) prop-2-en-1-one]	++ (++ indicates binding activity from 50 to 90%)
C=CC(=O)N1CCN(c2nc(OCCP(C)(C)=O)nc3c(F)c(-c4c(O)cccc4F)c(Cl)cc23)CC1 [Example I-206, 1-(4-(6-chloro-2-(2-(dimethyl-phosphoryl)ethoxy)-8-fluoro-7-(2-fluoro-6-hydroxyphenyl)quinazolin-4-yl)piperazin-1-yl) prop-2-en-1-one]	+++ (+++ indicates binding activity greater than 90%)
C=CC(=O)N1CCN(c2nc(OCCNP(C)(C)=O)nc3c(F)c(-c4c(O)cccc4F)c(Cl)cc23)CC1 [Example I-207, N-(2-(4-(4-acryloyl-piperazin-1-yl)-6-chloro-8-fluoro-7-(2-fluoro-6-hydroxyphenyl)quinazolin-2-yloxy)ethyl)-P,P-dimethyl-phosphinic amide]	++ (++ indicates binding activity from 50 to 90%)
C=CC(=O)N1CCN(c2nc(NCCP(C)(C)=O)nc3c(F)c(-c4c(O)cccc4F)c(Cl)cc23)CC1 [Example I-208, 1-(4-(6-chloro-2-(2-(dimethyl-phosphoryl)ethylamino)-8-fluoro-7-(2-fluoro-6-hydroxyphenyl)quinazolin-4-yl)piperazin-1-yl) prop-2-en-1-one]	++ (++ indicates binding activity from 50 to 90%)
C=CC(=O)N1CCN(c2nc(CP(C)(C)=O)nc3c(F)c(-c4c(O)cccc4F)c(Cl)cc23)CC1 [Example I-209, 1-(4-(6-chloro-2-((dimethyl-phosphoryl)methyl)-8-fluoro-7-(2-fluoro-6-hydroxyphenyl)quinazolin-4-yl)piperazin-1-yl) prop-2-en-1-one]	++ (++ indicates binding activity from 50 to 90%)
C=CC(=O)N1CCN(c2nc(COCc3ncccc3F)nc3c(F)c(-c4c(O)cccc4F)c(Cl)cc23)CC1 [Example I-210, 1-(4-(6-chloro-8-fluoro-7-(2-fluoro-6-hydroxyphenyl)-2-(((3-fluoro-pyridin-2-yl)methoxy)methyl)quinazolin-4-yl)piperazin-1-yl) prop-2-en-1-one]	+++ (+++ indicates binding activity greater than 90%)

Same assay, conditions: covalent binding to KRAS G12C; compounds of structure (II)

Compound	Binding %
O=C(/C=C/CN1CCOCC1)N1CCN(c2ncnc3c(F)c(-c4c(O)cccc4F)c(Cl)cc23)CC1 [II-1, (E)-1-(4-(6-chloro-8-fluoro-7-(2-fluoro-6-hydroxyphenyl)quinazolin-4-yl)piperazin-1-yl)-4-morpholinobut-2-en-1-one]	+ (+ indicates binding activity up to 50%)
O=C(/C=C/CN1CCC1)N1CCN(c2ncnc3c(F)c(-c4c(O)cccc4F)c(Cl)cc23)CC1 [II-2, (E)-4-(azetidin-1-yl)-1-(4-(6-chloro-8-fluoro-7-(2-fluoro-6-hydroxyphenyl)quinazolin-4-yl)piperazin-1-yl)but-2-en-1-one]	+++ (+++ indicates binding activity of 75% or greater)
C=CC(=O)N1CCN(c2ncnc3c(F)c(-c4c(O)ccc(F)c4F)c(Cl)cc23)CC1 [II-3, 1-(4-(6-chloro-7-(2,3-difluoro-6-hydroxyphenyl)-8-fluoroquinazolin-4-yl)piperazin-1-yl)prop-2-en-1-one]	+++ (+++ indicates binding activity of 75% or greater)
C=CC(=O)N1CC2(CCN(c3ncnc4c(F)c(-c5c(O)cccc5F)c(Cl)cc34)C2)C1 [II-4, 1-(6-(6-chloro-8-fluoro-7-(2-fluoro-6-hydroxyphenyl)quinazolin-4-yl)-2,6-diazaspiro[3.4]octan-2-yl)prop-2-en-1-one]	+ (+ indicates binding activity up to 50%)
C=CC(=O)N1CCN(c2ncnc3cc(-c4c(F)cccc4C(F)F)c(Cl)cc23)CC1 [II-5, 1-(4-(6-chloro-7-(2-(difluoromethyl)-6-fluorophenyl)quinazolin-4-yl)piperazin-1-yl)prop-2-en-1-one]	+ (+ indicates binding activity up to 50%)
C=CC(=O)N1CCN(c2ncnc3c(F)c(-c4c(F)cccc4OCc4cncn4C)c(Cl)cc23)CC1 [II-6, 1-(4-(6-chloro-8-fluoro-7-(2-fluoro-6-((1-methyl-1H-imidazol-5-yl)methoxy)phenyl)quinazolin-4-yl)piperazin-1-yl)prop-2-en-1-one]	++ (++ indicates binding activity greater than 50% and less than 75%)
C=CC(=O)N1CCCN(c2ncnc3c(F)c(-c4c(O)cccc4F)c(Cl)cc23)CC1 [II-7, 1-(4-(6-chloro-8-fluoro-7-(2-fluoro-6-hydroxyphenyl)quinazolin-4-yl)-1,4-diazepan-1-yl)prop-2-en-1-one]	+ (+ indicates binding activity up to 50%)
C=CC(=O)N1CCC2(C1)CN(c1ncnc3c(F)c(-c4c(O)cccc4F)c(Cl)cc13)C2 [II-8, 1-(2-(6-chloro-8-fluoro-7-(2-fluoro-6-hydroxyphenyl)quinazolin-4-yl)-2,6-diazaspiro[3.4]octan-6-yl)prop-2-en-1-one]	+ (+ indicates binding activity up to 50%)
C=CC(=O)N1CCC(Nc2ncnc3c(F)c(-c4c(O)cccc4F)c(Cl)cc23)C1 (centres unmarked) [II-9, 1-(3-((6-chloro-8-fluoro-7-(2-fluoro-6-hydroxyphenyl)quinazolin-4-yl)amino)pyrrolidin-1-yl)prop-2-en-1-one]	+ (+ indicates binding activity up to 50%)
C=CC(=O)N1CCN(c2ncnc3c(F)c(-c4c(F)cccc4OCc4cnc([N+](=O)[O-])n4C)c(Cl)cc23)CC1 [II-10, 1-(4-(6-chloro-8-fluoro-7-(2-fluoro-6-((1-methyl-2-nitro-1H-imidazol-5-yl)methoxy)phenyl)quinazolin-4-yl)piperazin-1-yl)prop-2-en-1-one]	+++ (+++ indicates binding activity of 75% or greater)
C=CC(=O)Nc1cccc(-c2ncnc3c(F)c(-c4c(O)cccc4F)c(Cl)cc23)c1 [II-11, N-(3-(6-chloro-8-fluoro-7-(2-fluoro-6-hydroxyphenyl)quinazolin-4-yl)phenyl)acrylamide]	+ (+ indicates binding activity up to 50%)
C=CC(=O)Nc1cc(-c2ncnc3c(F)c(-c4c(O)cccc4F)c(Cl)cc23)ccn1 [II-12, N-(4-(6-chloro-8-fluoro-7-(2-fluoro-6-hydroxyphenyl)quinazolin-4-yl)pyridin-2-yl)acrylamide]	+ (+ indicates binding activity up to 50%)
